Experiment [1] deals with human TYK2 (JH2domain-pseudokinase) (Homo sapiens (Human), UniProt P29597). The experiment can be described thus: TYK2 JH2 Domain Binding Assay (KINOMEscan). The method in brief:
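The construct was human TYK2 G556–D888 fused to the NFkB DNA-binding domain and expressed in HEK293 cells; unpurified extract was incubated with compound and liganded beads for 1 hour at room temperature.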

The target of another experiment is Tyk2 kinase domain (DH1) (Homo sapiens (Human), UniProt P29597). The experiment can be described thus: Tyk2 Radioactive Kinase Assay. The experiment is classed as biochemical. The settings on record: for inhibition at 10 µM: read-out: Tyk2 JH1% Inhibition @ 10 μM. In a few lines:
(§1)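 Values are single-concentration percent inhibition figures. They were obtained with 10 μM compound in a radioactivity-based kinase assay run separately on each enzyme.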

A further experiment deals with JAK2 kinase domain (JH1) (Homo sapiens (Human), UniProt O60674). The experiment can be described thus: JAK2 Radioactive Kinase Assay. The conditions noted are these: for inhibition at 10 µM: read-out: JAK2 JH1% Inhibition @ 10 μM. It counts as biochemical. In a few lines: as §1
Experiment [2] has as its target Tyk2/JAK2 (heterodimeric complex) (Homo sapiens (Human), UniProt P29597). The experiment can be described thus: IL-12 Induced pSTAT4 in Human PBMC. The experiment is classed as cell-based. The settings on record: 1.7 ng/mL IL-12. From the text:
The IL-12 Induced pSTAT4 assay evaluates the inhibition of IL-12 induced STAT4 phophorylation mediated by Tyk2/JAK2 (heterodimeric complex).

The target in experiment [3] is JAK2/JAK2 homdimeric complex (Homo sapiens (Human), UniProt O60674). The experiment can be described thus: GM-CSF Induced pSTAT5 in Human PBMC. The experiment is classed as cell-based. The settings on record: GM-CSF 5 ng/mL for 20 minutes, pSTAT5 by MSD, read-out: PBMC_GMCSF_pSTAT5 IC50.

Structures are written as SMILES. pIC50, pKd: −log10 of the molar value. Where two headings read alike, the source gives them in different places.

JAK2/JAK2 homdimeric complex, sequence (O60674 whole entry): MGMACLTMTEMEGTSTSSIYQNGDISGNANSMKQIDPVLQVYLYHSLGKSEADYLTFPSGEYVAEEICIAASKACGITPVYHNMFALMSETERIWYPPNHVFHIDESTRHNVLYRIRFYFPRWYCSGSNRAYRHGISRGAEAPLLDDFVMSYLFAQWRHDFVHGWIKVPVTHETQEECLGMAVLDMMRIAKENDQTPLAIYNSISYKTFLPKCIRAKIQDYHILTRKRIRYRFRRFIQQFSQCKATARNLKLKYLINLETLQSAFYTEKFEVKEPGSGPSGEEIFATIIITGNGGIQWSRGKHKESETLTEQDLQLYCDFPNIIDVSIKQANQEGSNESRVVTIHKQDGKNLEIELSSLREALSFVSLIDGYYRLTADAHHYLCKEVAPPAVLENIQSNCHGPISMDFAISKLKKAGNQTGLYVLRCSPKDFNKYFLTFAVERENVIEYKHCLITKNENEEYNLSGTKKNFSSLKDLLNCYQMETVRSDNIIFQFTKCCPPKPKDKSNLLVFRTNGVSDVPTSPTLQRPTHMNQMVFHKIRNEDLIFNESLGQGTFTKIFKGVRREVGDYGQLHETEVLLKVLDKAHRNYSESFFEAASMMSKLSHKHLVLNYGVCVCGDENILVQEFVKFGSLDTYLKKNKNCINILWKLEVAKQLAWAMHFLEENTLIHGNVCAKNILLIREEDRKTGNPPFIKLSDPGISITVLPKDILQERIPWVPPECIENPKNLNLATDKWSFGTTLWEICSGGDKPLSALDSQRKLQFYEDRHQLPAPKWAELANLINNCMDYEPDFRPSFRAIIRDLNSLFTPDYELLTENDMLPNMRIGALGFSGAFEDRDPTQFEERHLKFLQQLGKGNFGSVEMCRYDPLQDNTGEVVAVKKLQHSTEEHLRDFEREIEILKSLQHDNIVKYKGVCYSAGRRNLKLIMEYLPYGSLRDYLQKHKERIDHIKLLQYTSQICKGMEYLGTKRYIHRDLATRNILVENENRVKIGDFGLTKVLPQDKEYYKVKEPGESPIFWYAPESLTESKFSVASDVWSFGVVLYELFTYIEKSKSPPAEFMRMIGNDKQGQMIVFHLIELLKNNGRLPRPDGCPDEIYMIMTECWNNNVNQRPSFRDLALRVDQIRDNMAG
JAK2/JAK2 homdimeric complex, sequence (P32927 17-897 partner): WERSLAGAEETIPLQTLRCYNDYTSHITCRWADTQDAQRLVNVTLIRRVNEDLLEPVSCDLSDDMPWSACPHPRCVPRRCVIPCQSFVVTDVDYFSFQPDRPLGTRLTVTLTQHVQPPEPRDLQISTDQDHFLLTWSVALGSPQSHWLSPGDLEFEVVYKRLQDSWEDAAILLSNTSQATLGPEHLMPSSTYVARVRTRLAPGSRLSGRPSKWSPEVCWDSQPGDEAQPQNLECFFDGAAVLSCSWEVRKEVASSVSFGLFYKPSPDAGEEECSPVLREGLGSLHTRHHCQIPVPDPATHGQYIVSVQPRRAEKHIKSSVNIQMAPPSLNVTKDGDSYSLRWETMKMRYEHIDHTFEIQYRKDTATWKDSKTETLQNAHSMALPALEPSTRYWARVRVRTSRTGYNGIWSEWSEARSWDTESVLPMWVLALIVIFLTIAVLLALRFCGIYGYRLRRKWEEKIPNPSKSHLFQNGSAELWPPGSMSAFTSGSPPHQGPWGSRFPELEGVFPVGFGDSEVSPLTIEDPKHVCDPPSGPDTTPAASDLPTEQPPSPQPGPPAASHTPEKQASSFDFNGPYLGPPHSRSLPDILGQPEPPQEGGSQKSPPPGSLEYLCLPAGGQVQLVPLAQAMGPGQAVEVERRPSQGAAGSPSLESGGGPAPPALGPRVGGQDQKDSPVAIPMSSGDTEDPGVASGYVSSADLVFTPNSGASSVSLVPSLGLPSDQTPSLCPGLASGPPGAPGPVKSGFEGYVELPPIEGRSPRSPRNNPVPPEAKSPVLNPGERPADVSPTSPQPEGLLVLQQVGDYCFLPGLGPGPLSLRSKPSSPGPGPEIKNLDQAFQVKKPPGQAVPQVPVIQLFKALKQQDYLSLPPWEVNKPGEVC
human TYK2 (JH2domain-pseudokinase), sequence (P29597 556-888): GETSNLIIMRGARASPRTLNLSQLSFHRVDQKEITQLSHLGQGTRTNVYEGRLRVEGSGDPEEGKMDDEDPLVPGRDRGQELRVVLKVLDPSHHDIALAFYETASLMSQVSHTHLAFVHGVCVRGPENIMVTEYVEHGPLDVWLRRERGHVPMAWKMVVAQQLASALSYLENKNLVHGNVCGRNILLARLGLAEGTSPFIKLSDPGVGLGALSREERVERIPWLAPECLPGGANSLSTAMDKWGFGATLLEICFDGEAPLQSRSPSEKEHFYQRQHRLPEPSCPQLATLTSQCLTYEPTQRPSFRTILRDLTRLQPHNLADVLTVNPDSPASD
Tyk2 kinase domain (DH1), sequence (P29597 897-1176): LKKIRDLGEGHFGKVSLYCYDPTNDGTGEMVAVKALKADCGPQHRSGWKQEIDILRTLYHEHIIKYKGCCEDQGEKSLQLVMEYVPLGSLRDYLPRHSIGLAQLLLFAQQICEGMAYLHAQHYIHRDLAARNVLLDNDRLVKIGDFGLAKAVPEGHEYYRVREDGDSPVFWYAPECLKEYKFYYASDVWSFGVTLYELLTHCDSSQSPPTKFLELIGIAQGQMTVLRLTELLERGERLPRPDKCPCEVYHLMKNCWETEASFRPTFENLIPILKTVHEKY
JAK2 kinase domain (JH1), sequence (O60674 849-1124): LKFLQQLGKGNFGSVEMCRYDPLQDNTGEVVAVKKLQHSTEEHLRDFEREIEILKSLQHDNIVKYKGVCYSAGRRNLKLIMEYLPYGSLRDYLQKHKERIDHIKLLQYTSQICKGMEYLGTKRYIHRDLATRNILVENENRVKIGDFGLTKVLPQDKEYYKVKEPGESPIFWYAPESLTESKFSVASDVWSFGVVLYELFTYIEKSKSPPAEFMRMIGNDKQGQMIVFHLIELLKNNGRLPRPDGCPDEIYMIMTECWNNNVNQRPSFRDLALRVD
Tyk2/JAK2 (heterodimeric complex), sequence (P29597 whole entry, other chains not shown): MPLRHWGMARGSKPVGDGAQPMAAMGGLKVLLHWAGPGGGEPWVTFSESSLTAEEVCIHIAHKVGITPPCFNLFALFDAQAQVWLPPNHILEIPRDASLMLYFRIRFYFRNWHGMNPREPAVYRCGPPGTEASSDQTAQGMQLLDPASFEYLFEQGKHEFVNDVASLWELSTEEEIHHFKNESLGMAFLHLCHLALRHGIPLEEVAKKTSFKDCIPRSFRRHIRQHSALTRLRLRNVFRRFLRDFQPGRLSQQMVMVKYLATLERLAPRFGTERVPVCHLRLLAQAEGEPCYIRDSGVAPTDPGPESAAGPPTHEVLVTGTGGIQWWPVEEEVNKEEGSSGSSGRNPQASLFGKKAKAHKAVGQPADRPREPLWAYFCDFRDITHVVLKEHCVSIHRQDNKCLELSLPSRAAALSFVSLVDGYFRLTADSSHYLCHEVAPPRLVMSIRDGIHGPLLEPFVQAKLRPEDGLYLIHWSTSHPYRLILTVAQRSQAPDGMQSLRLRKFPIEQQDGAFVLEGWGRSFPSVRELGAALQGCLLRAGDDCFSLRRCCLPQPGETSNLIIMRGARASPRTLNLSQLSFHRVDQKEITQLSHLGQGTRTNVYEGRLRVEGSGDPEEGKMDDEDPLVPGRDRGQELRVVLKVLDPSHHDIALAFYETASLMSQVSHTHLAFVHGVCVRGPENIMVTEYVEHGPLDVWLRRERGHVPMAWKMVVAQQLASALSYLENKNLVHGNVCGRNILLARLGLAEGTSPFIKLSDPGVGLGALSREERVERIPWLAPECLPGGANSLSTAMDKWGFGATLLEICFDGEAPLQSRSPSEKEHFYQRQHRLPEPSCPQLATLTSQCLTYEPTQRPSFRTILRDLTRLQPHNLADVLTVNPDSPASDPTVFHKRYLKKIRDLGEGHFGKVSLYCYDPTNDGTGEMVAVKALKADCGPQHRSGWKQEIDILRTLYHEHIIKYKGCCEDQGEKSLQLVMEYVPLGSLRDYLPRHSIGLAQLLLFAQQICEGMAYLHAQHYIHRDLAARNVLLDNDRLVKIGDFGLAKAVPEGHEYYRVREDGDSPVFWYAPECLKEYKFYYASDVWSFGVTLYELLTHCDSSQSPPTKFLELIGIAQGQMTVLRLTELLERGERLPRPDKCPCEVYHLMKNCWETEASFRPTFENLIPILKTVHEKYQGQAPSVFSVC

Take `CNc1cc(Nc2cccn(-c3cncc(C)c3)c2=O)nc2c(C(=O)NC3CCC3)cnn12` [I-303]: the negative-log Kd (pKd) in experiment [1] is more than 9.70. For the same compound, the inhibition at 10 µM at Tyk2 kinase domain (DH1) (compound at 10 μM, ATP 10 μM) was less than 50%; on JAK2 kinase domain (JH1) (compound at 10 μM, ATP 10 μM), less than 50%. The results for the pIC50 in experiment [2] and in experiment [3] were more than 7.00 and less than 4.30, respectively.
For the compound `CNc1cc(Nc2cccnc2OC2CC2)nc2c(C(=O)NC3CC3)cnn12` [I-215, 5-((2-cyclopropoxypyridin-3-yl)amino)-N-cyclopropyl-7-(methylamino) pyrazolo[1,5-a]pyrimidine-3-carboxamide], the pKd in experiment [1] is more than 9.70. In addition, the inhibition at 10 µM at Tyk2 kinase domain (DH1) (compound at 10 μM, ATP 10 μM) was less than 50%; on JAK2 kinase domain (JH1) (compound at 10 μM, ATP 10 μM), less than 50%. For the same compound, the results for the negative logarithm of the IC50 (pIC50) in experiment [2] and in experiment [3] were more than 7.00 and less than 4.30, respectively.
`CNc1cc(Nc2cccn([C@H]3CC[C@H](OC)CC3)c2=O)nc2c(C(=O)NC3CC3)cnn12` [I-343] gave a pKd in experiment [1] of more than 9.70. In addition, the inhibition at 10 µM was less than 50% on Tyk2 kinase domain (DH1) (compound at 10 μM, ATP 10 μM) and less than 50% on JAK2 kinase domain (JH1) (compound at 10 μM, ATP 10 μM). Also, the results for the pIC50 in experiment [2] and in experiment [3] were more than 7.00 and less than 4.90, respectively.
Regarding `CNc1cc(Nc2cccc3ocnc23)nc2c(C(=O)NCC(C)(C)CO)cnn12` [I-750], the pKd in experiment [1] is more than 9.70. For the same compound, the inhibition at 10 µM at Tyk2 kinase domain (DH1) (compound at 10 μM, ATP 10 μM) is less than 50%; at JAK2 kinase domain (JH1) (compound at 10 μM, ATP 10 μM), less than 50%. In addition, the pIC50 in experiment [2] was more than 7.00; in experiment [3] it was less than 5.60.
As for `CNc1cc(Nc2cccn3ccnc23)nc2c(C(=O)N[C@@H]3C[C@@H]3F)cnn12` [I-892], the pKd in experiment [1] was more than 9.70. Further, the inhibition at 10 µM was less than 50% on Tyk2 kinase domain (DH1) (10 μM compound, 10 μM ATP) and less than 50% at JAK2 kinase domain (JH1) (10 μM compound, 10 μM ATP). Moreover, the pIC50 is more than 7.00 in experiment [2] and less than 4.90 in experiment [3].
The compound `CCn1cc(Cl)cc(Nc2cc(NC)n3ncc(C(N)=O)c3n2)c1=O` [I-35] gave a pKd in experiment [1] of more than 9.70. Further, the inhibition at 10 µM was less than 50% on Tyk2 kinase domain (DH1) (compound at 10 μM, ATP 10 μM) and less than 50% on JAK2 kinase domain (JH1) (compound at 10 μM, ATP 10 μM). Also, the pIC50 in experiment [2] was more than 7.00; in experiment [3], less than 6.52.
Regarding `CNc1cc(Nc2cc(F)cnc2OC2CC2)nc2c(C(=O)N[C@H]3C[C@H]3F)cnn12` [I-275], in experiment [1], the negative-log Kd (pKd) is more than 9.70. Moreover, the inhibition at 10 µM is less than 50% at Tyk2 kinase domain (DH1) (compound at 10 μM, ATP 10 μM) and less than 50% on JAK2 kinase domain (JH1) (compound at 10 μM, ATP 10 μM). Also, the pIC50 is more than 7.00 in experiment [2] and less than 4.30 in experiment [3].
The compound `CNc1cc(Nc2cccn([C@H]3CCCOC3)c2=O)nc2c(C(=O)NC3CCC3)cnn12` [I-354] showed a pKd in experiment [1] of more than 9.70. Further, the inhibition at 10 µM was less than 50% on Tyk2 kinase domain (DH1) (compound at 10 μM, ATP 10 μM) and less than 50% on JAK2 kinase domain (JH1) (compound at 10 μM, ATP 10 μM). In addition, the pIC50 is more than 7.00 in experiment [2] and less than 5.60 in experiment [3].
Turning to `CNc1cc(Nc2cccnc2OCCOC)nc2c(C(=O)N[C@H]3C[C@H]3F)cnn12` [I-220], in experiment [1], the pKd is more than 9.70. Moreover, the inhibition at 10 µM on Tyk2 kinase domain (DH1) (compound at 10 μM, ATP 10 μM) was less than 50%; at JAK2 kinase domain (JH1) (compound at 10 μM, ATP 10 μM), less than 50%. Besides, the figures for the pIC50 in experiment [2] and in experiment [3] were more than 7.00 and less than 4.90, respectively.
Take `CNc1cc(Nc2cccn(-c3ocnc3C)c2=O)nc2c(C(=O)N[C@@H]3C[C@@H]3F)cnn12` [I-790]: the pKd in experiment [1] is more than 9.70. In addition, the inhibition at 10 µM at Tyk2 kinase domain (DH1) (compound at 10 μM, ATP 10 μM) is less than 50%; on JAK2 kinase domain (JH1) (compound at 10 μM, ATP 10 μM), less than 50%. Further, the pIC50 in experiment [2] was more than 7.00; in experiment [3], less than 4.90.
In experiment [1], `[2H]C([2H])([2H])Oc1ncccc1Nc1cc(NC)n2ncc(C(=O)N[C@H]3CC[C@H]3O)c2n1` (stereo in doubt) [I-399, N-((1 S,2R)-2-hydroxycyclobutyl)-5-((2-(methoxy-d3)pyridin-3-yl)amino)-7-(methylamino) pyrazolo[1,5-a]pyrimidine-3-carboxamide] gave a pKd of more than 9.70. Further, on Tyk2 kinase domain (DH1) (compound at 10 μM, ATP 10 μM), the “Tyk2 JH1% Inhibition @ 10 μM” value is “A (percent inhibition at 10 μM lower than 50)”. Further, the “JAK2 JH1% Inhibition @ 10 μM” value at JAK2 kinase domain (JH1) (compound at 10 μM, ATP 10 μM) is “A (percent inhibition at 10 μM lower than 50)”. Further, the pIC50 in experiment [2] is more than 7.00; in experiment [3], less than 4.90.
With `CNc1cc(Nc2cccn(-c3cc(C)on3)c2=O)nc2c(C(=O)NC3CCC3)cnn12` [I-160], in experiment [1], the pKd is more than 9.70. For the same compound, the inhibition at 10 µM at Tyk2 kinase domain (DH1) (compound at 10 μM, ATP 10 μM) was less than 50%; at JAK2 kinase domain (JH1) (compound at 10 μM, ATP 10 μM) it was less than 50%. Besides, the pIC50 in experiment [2] was more than 7.00; in experiment [3] it was less than 4.90.
`CNc1cc(Nc2cc(Cl)cn(-c3cc(C)n(C)n3)c2=O)nc2c(C(=O)NC3CC3)cnn12` [I-314]: the pKd in experiment [1] was more than 9.70. Also, the inhibition at 10 µM on Tyk2 kinase domain (DH1) (compound at 10 μM, ATP 10 μM) was less than 50%; at JAK2 kinase domain (JH1) (compound at 10 μM, ATP 10 μM) it was less than 50%. For the same compound, the values for the pIC50 in experiment [2] and in experiment [3] were more than 7.00 and less than 5.60, respectively.
